Measurements reported in paper PMC10373114, “CDK2 regulates collapsed replication fork repair in CCNE1-amplified ovarian cancer cells via homologous recombination” (NAR Cancer, 2023).

Experiments:
[1] = test system: COV644 cells; experiment: CyQuant proliferation assay; assay type: cell-based, human; details: 5 days
Procedure: (§1) OVCAR-3, COV644, or MCF-7 cells were seeded at 1000 cells/well in 384-well black, clear bottom plates and allowed to adhere overnight at 37°C/5% CO2. The following day, cells were treated with compound in a 10-point dose response, 1:4 dilutions. After 5 days of incubation, CyQuant Direct Proliferation Assay was performed according to the manufacturer's instructions. Data were processed with GraphPad Prism using a four-parameter fit to calculate IC50.

[2] = test system: kinases tested (n = 468); experiment: KINOMEscan kinome selectivity; assay type: binding; details: fraction of kinases with <10% of control at 3 μM among 468 kinases tested
[3] = test system: MCF-7 cells; experiment: CyQuant proliferation assay; assay type: cell-based; details: Homo sapiens, MCF7, 120 h, read-out: MCF-7 IC50
Procedure: as §1

[4] = test system: CtIP bandshift and pRPA S4/8; experiment: Western blot of HR signaling after etoposide; assay type: cell-based; details: 1 μM RO-3306 or 10 μM roscovitine, 24 h before 50 μM etoposide 2 h
Procedure: Cells were lysed in PhosphoSafe Lysis Buffer (EDM millipore, Cat#71296) and protein was quantified using the Pierce BCA Gold Kit (Thermo Fisher Scientific Cat#A53227). Lysate and lysis buffer were combined with 4× Loading Dye (Bio-Rad, Cat#1610747) and 2ME (Bio-Rad, Cat#1610710). Samples were loaded into Bio-Rad 4–20% Tris-glycine, 18-well SDS-PAGE (Cat#5671094). Transfer was performed using Bio-Rad dry transfer system (Trans-Blot Turbo) (Nitrocellulose membrane, 0.2 μM). Blocking was performed using LI-COR Odyssey Blocking Buffer (Cat#927–70001). Primary antibodies (CDK2 1:500, p16 1:1000, CCNE1 1:500, pRbT821 1:500, Actin R 1:2000, p21 1:1000, CCNA2 1:500, pRb S807/811 1:1000, pRb S780 1:500, CtIP 1:1000, Actin M 1:5000, pH2A.X Ser139 1:1000, pCDK2 T160 1:1000, pRPA S4/8 1:1000, CDK1 1:1000, pCDK1 Y15 1:1000, pChk1 S317 1:500, Total Chk1 1:1000, Tubulin 1:10 000) were combined with Odyssey Blocking Buffer and 0.1% Tween-20, and incubated at 4°C, rotating. Secondary antibodies were combined with Odyssey Blocking Buffer and 0.1% Tween-20 and incubated at room temperature, rotating. All secondary antibodies were diluted to 1:10 000 (LI-COR Cat#926–33212, Cat#926-33213, Cat#926-68070, Cat#926–68071, Cat#926–68076). Signals were detected using LI-COR Odyssey CLx Imaging Studio.

[5] = test system: OVCAR-3 cells; experiment: CyQuant proliferation assay; assay type: cell-based, human; details: 5 days
Procedure: as §1

[6] = test system: OVCAR-3 cells; experiment: Proliferative recovery after HU-induced replication fork collapse (IncuCyte confluence); assay type: cell-based, human; details: 500 nM, HU 2 mM 24 h pulse
Procedure: Figure S2. Replication fork stall signaling is dependent on CDK2, HR in CCNE1 - […]
(A) Cyclin E1 protein expression is strongly associated with CCNE1 copy number […]
amplification among TCGA patients with ovarian cancer (n=304) (Welch Two Sample t- […]
test, P = 2.3E-13). (B) Chemical structures of BLU1851. (C) Kinome tree for BLU1851 […]
at 3 µM (S-Score = 0.050). (D) Dose-response curves for BLU1851 enzyme inhibition […]
for indicated CDK family members. Error bars represent SD of at least duplicate independent experiments. (E) NanoBRET assessment of BLU1851 target engagement […]
in indicated CDK complexes expressed in HEK-293 cells. Error bars represent SD of at […]
least duplicate independent experiments. (F) Dose-response curve for pRb T821/826 […]
inhibition by BLU1851 in OVCAR-3 cells. Error bars represent SD of at least duplicate independent experiments. (G) Dose-response curve for pLamin S22 inhibition by BLU1851 in OVCAR-3 and COV644 cells. Error bars represent SD of duplicate independent experiments. (H) Dose-response curves in MCF-7, OVCAR-3 cells. […] (I) Quantification of pCHK1 S317 normalized to […]
allowed to recover in the presence of rabusertib. Confluence was calculated using […]
confluency at experimental endpoint. Confluence was measured by IncuCyte live cell […]
imaging and values were determined using an algorithm to detect cells from phase- […]

[7] = test system: homologous recombination (3X-FLAG ACTB reporter); experiment: CRISPR/Cas9 recombination assay; assay type: cell-based, human; details: 25 or 250 nM BLU1851, 10 μM roscovitine; 72 h
Procedure: pBluescript SK II + and LentiCRISPR v2 plasmids were purchased from Genscript. LentiCRISPR v2 plasmids expressing single guide (sgRNA) against ACTB or scrambled sgRNA were constructed according to the depositor's instructions. To construct HR donor vectors against ACTB, sequences from −1554 to +1527 relative to the stop codon of ACTB plus 3× FLAG directly 5’ from the stop codon were synthesized and cloned into pBluescript SK II using restriction digest and ligation. Compounds were added to cells on the day of plasmid transfection. sgRNA/Cas9 and the donor plasmid were prepared in a 1:2 molar ratio; 1 μg of total DNA/well was transfected onto cells using Lipofectamine 2000 (Thermo Fisher Scientific Cat#11668019). Cells were harvested for Western Blot analysis 72 h later.

SMILES: CC(C)CC(=O)c1c(Nc2ccc(Cl)cc2Cl)[nH]c2c(Cl)ccc([N+](=O)[O-])c2c1=O [JH-RE-06]
- sensitivity of COV644 cells compared with OVCAR-3 cells (proliferative IC50) [1]: more sensitive

SMILES: CC(=O)c1c(C)c2cnc(Nc3ccc(N4CCNCC4)cn3)nc2n(C2CCCC2)c1=O [Palbociclib, reference compound]
- Kinome S (10) [2]: 0.041
- IC50 [3]: 150 nM

SMILES: O=C1NC(=NCc2cccs2)S/C1=C\c1ccc2ncccc2c1 [RO-3306]
- HR signaling across cell lines tested [4]: only a small effect in some cell lines

SMILES: N=C1NC(=O)/C(=C/c2ccc(O)cc2)S1 [mirin]
- sensitivity of OVCAR-3 cells compared with COV644 cells (proliferative IC50) [5]: more sensitive

SMILES: Cc1cnc(NC(=O)Nc2cc(Br)c(C)cc2OC[C@@H]2CNCCO2)cn1 [rabusertib]
- proliferation following HU treatment [6]: suppressed the ability of OVCAR-3 cells to proliferate following HU treatment

SMILES: CC[C@H](CO)Nc1nc(NCc2ccccc2)c2ncn(C(C)C)c2n1 [roscovitine]
- HR signaling across cell lines tested [4]: suppressed HR signaling in most cell lines tested
- recombination (3X-FLAG product) [7]: inhibited recombination in all cell lines

SMILES: COC1=C(N)C(=O)c2nc(-c3nc(C(=O)O)c(C)c(-c4ccc(OC)c(OC)c4O)c3N)ccc2C1=O [streptonigrin]
- sensitivity of OVCAR-3 cells compared with COV644 cells (proliferative IC50) [5]: more sensitive
